{"source": "patent US8242087B2", "about": "“Phosphate modified nucleosides useful as substrates for polymerases and as antiviral agents” (priority 2007, dated 2012)", "key": {"[1]": {"biological_target": "T1, HIV RT (Human immunodeficiency virus type 1 group M subtype B, UniProt P03366)", "T1 construct": "HIV RT polymerase was purchased from GE Healthcare; purchased GE Healthcare (Amersham Bioscience)", "experiment": "Steady state kinetics of single nucleotide incorporation by HIV RT (P1/T1)", "assay_type": "biochemical, HIV-1", "protocol": "The steady steate kinetics of a single nucleotide incorporation of an amino acid phosphoramidate (AA-dAMP) and of a natural nucleoside triphosphate (dATP) was determined by the gel-based polymerase assay. In all the experiments, the template T1 and the primer P1 were used (Table 1). The primer and template in 1:2 molar ratio were hybridized in a buffer containing 20 mM TRIS.HCl, 10 mM KCl, 2 mM MgSO4, 0.1% Triton X-100, pH 8.8 and used in an amount to provide 125 nM concentration of the primer in each 12 μL reaction. The range of concentrations for amino acid phosphoramidates was optimized according to a Km value for the incorporation of an individual nucleotide. In the case of HIV RT (Amersham Bioscience (GE Healthcare), 30 U/μL), reaction mixtures containing the enzyme in concentration to attain 5-20% conversion and appropriate substrate concentration (nucleoside phosphoramidate or natural dNTP) were incubated at 37° C. and run for 8-10 different time intervals. Kinetic analysis of single nucleotide incorporation by Therminator DNA polymerase (NEB, 2 U/μL) was performed similarly except the incubations and polymerase reactions, which were carried out at 70° C. To prevent solvent condensation/evaporation, the reaction mixtures were topped with mineral oil. The reactions were quenched by addition of the buffer containing 80% formamide, 2 mM EDTA, 1×TBE buffer. The analysis of polymerase reactions was performed by polyacrylamide gel electrophoresis (20% (19:1 mono:bis), 7M urea, 30 cm×40 cm×0.4 mm). The relative band intensities were measured using OptiQuant software. The rates of incorporation (V) were calculated based on the percentage of the extension production (n+1 band). The kinetic parameters (Vmax and Km) were determined by plotting V (pmol/min·U) versus substrate concentration and fitting the data point to a rectangular hyperbola using GraphPad Prism software."}, "[2]": {"biological_target": "T2, HIV reverse transcriptase (Human immunodeficiency virus type 1 group M subtype B, UniProt P03366)", "T2 construct": "performed for the enzyme HIV reverse transcriptase (GE Healthcare, 30 U/4 stock solution); purchased GE Healthcare", "experiment": "Gel-based single-nucleotide-incorporation and control assays with HIV RT (Example 4)", "assay_type": "biochemical, HIV-1", "details": "P1/T2; 9 incorporated first (two hours), then compound 1 added, two more hours"}, "[3]": {"biological_target": "T3, Therminator DNA polymerase (Thermococcus sp., UniProt Q56366, A485L/D141A/E143A)", "T3 construct": "purchased Westburg (NEB)", "T3 sequence (Q56366 whole entry D141A/E143A/A485L)": "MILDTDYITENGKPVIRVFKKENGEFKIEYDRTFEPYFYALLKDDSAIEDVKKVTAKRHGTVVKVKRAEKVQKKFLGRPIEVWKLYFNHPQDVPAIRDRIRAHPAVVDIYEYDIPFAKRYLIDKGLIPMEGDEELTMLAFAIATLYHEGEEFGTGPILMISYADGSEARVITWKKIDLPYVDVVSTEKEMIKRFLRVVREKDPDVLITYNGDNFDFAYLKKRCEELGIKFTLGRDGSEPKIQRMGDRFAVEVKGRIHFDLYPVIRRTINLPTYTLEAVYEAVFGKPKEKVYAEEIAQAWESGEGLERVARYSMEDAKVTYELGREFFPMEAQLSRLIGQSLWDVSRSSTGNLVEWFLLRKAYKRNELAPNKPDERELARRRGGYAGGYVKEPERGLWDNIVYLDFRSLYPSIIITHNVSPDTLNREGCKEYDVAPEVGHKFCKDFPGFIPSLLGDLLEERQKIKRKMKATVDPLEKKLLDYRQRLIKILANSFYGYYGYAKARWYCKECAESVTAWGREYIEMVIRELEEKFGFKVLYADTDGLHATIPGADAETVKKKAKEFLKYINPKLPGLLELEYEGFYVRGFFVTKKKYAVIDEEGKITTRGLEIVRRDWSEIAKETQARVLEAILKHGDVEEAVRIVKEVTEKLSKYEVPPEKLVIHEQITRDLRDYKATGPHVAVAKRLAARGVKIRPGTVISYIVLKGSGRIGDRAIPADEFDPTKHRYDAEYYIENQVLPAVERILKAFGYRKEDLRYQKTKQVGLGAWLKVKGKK", "experiment": "Single nucleotide incorporation by Therminator DNA polymerase", "assay_type": "biochemical, (9° N-7) Thermococcus sp.", "protocol": "(§1) In the case of Therminator DNA polymerase, the enzyme was obtained from Westburg (NEB) (2 U/μL) and the reactions were carried out in a 10× Thermopol reaction buffer containing 20 mM TRIS.HCl, 10 mM KCl, 2 mM MgSO4, 0.1% Triton X-100, pH 8.8. The final concentration of the Therminator DNA pol in the reaction mixture was 8.33×10^−4 U/μL. The polymerase reaction involving Therminator DNA polymerase or any other thermostable polymerase (Vent (exo^−), Taq DNA polymerase) was carried out in a similar way as the HIV RT reaction with some modifications. The dNTP solutions and the primer/template/DNA polymerase mixture solutions were topped with mineral oil (30-60 μL) and pre-incubated at 70° C. for 2 minutes. The polymerase reactions were performed at 70° C. as well."}, "[4]": {"biological_target": "Vent (exo−) DNA polymerase (Thermococcus litoralis, UniProt P30317, D141A/DEL1082-1471/DEL495-1032/E143A)", "sequence (P30317 other isoform, or with tags, fused parts or gaps D141A/E143A/DEL495-1032/DEL1082-1471)": "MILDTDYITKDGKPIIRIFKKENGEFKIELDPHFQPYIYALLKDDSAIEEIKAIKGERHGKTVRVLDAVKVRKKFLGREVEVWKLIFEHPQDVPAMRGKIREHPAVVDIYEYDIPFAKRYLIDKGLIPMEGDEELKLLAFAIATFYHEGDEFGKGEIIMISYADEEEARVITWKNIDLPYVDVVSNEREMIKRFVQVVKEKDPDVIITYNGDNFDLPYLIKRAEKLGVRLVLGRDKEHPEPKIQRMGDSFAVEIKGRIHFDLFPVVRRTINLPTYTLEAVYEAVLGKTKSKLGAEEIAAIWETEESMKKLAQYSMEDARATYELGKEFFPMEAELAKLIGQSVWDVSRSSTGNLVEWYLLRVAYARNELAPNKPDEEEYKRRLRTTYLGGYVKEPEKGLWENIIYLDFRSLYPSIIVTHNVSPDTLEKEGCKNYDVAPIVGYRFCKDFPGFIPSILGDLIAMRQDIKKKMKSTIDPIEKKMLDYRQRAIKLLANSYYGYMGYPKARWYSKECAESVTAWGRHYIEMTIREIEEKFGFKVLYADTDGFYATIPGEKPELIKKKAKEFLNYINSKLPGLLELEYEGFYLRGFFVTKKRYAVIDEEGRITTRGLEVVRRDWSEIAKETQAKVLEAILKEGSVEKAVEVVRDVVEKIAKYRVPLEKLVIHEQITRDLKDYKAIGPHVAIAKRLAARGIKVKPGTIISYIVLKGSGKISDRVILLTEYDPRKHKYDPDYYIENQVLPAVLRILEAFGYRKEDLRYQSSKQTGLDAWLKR", "experiment": "Single nucleotide incorporation by Vent (exo−) DNA polymerase", "assay_type": "biochemical", "protocol": "Reaction conditions: Primer (P1) was 5′-labeled with ^33P followed by annealing to a template T1; 125 nM primer/template (P1/T1), [Taq]=0.005 U/μL, [Vent]=0.005 U/μL, [KF]=0.05 U/μL; time intervals: 5, 15, 30, 60, 90 and 120 minutes.\nas §1"}}}
{"substance": "2′-deoxy-adenosine-5′-aspartyl-phosphoramidate [Compound 1]", "values": [{"measurement": "Km, fold higher as compared to dATP", "setting": "[1]", "result": 400, "unit": "fold"}, {"measurement": "Vmax, fold lower than natural substrate dATP", "setting": "[1]", "result": 3, "unit": "fold"}, {"measurement": "specificity (Vmax/Km), fold reduced vs natural substrate", "setting": "[1]", "result": 1300, "unit": "fold"}, {"measurement": "Km", "setting": "[1]; P1/T1, 37° C.", "result": "185 ± 24.5", "unit": "µM"}, {"measurement": "Vmax", "setting": "[1]; P1/T1, 37° C.", "result": "2.63 ± 0.13", "unit": "pmol/min · U"}, {"measurement": "n+1 product", "setting": "[2]", "result": 20, "unit": "%"}, {"measurement": "n+2 product", "setting": "[2]", "result": 80, "unit": "%"}, {"measurement": "primer extension", "setting": "[3]; 60 min, 500 μM nucleoside concentration", "result": 25.2, "unit": "%"}, {"measurement": "incorporation as Therminator DNA polymerase substrate", "setting": "[3]; single nucleotide incorporation, P1/T1", "result": "act effectively as alternative substrates"}, {"measurement": "insertion into a growing primer strand", "setting": "[4]", "result": "failed to insert"}]}
